Measurements from PubChem BioAssay (NCI).
“And” between values parts separate entries of the source, which are not always exact repeats. Equal entries are not always repeated.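 Protocol summary: plate cells (96-well), add compound at 5 concentrations, incubate 48 h, interpolate endpoints linearly. At the GI50, growth is halved. TGI marks complete inhibition of growth.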

Tests used:
Test in all cases: growth of human tumour cells (NCI), 48 h
[1] = test system: SK-MEL-2 melanoma
[2] = test system: T-47D breast
[3] = test system: 786-0 renal
[4] = test system: HOP-92 NSCLC
[5] = test system: M14 melanoma
[6] = test system: NCI-H23 lung
[7] = test system: COLO 205 colon
[8] = test system: K-562 leukemia
[9] = test system: HL-60(TB) leukemia
[10] = test system: NCI/ADR-RES ovarian

## C[CH2][Sn]([CH2]C)([O]C(=O)C(OC(C)=O)c1ccccc1)[O]C(=O)C(OC(C)=O)c1ccccc1 (configuration not stated)
[1]
  GI50: 54.6 µM
  TGI: > 100 µM
[2]
  GI50: 12.9 µM
  TGI: 28 µM
[3]
  GI50: 19.9 µM
  TGI: 34.8 µM
[4]
  GI50: 18.6 µM
  TGI: 34.9 µM
[5]
  GI50: 44.5 µM
  TGI: > 100 µM
[6]
  GI50: 15.5 µM
  TGI: 29.8 µM
[7]
  GI50: 23.3 µM
  TGI: 72.9 µM
[8]
  GI50: 14.6 µM
  TGI: 45.9 µM
[9]
  GI50: 10 µM
  TGI: 29.8 µM
[10]
  GI50: > 100 µM
  TGI: > 100 µM

## C/C=C(/COC(C)=O)C(=O)OC1C=C(C=O)C(C)(C)C=C1C (configuration not stated)
[1]
  TGI: > 100 µM
[2]
  TGI: > 100 µM
[3]
  TGI: > 100 µM
[4]
  TGI: > 100 µM
[5]
  TGI: > 100 µM
[6]
  TGI: > 100 µM
[7]
  TGI: > 100 µM
[8]
  TGI: > 100 µM
[9]
  TGI: > 100 µM
[10]
  TGI: > 100 µM

## COc1ccc(/C=C\c2cc(OC)c(OC)c(OC)c2)cc1OC
[1]
  GI50: 0.121 µM
  TGI: 40.4 µM and > 100 µM
[2]
  TGI: > 100 µM
[3]
  GI50: 0.616 µM
  TGI: 40.4 µM and > 100 µM
[4]
  GI50: 0.0473 µM
  TGI: 40.4 µM and 8.55 µM
[5]
  GI50: 0.0603 µM
  TGI: 40.4 µM and 18.1 µM
[6]
  GI50: 0.447 µM
  TGI: 40.4 µM and > 100 µM
[7]
  GI50: 0.11 µM
  TGI: 0.171 µM and 0.662 µM
[8]
  GI50: 0.0329 µM
  TGI: 40.4 µM and 15.7 µM
[9]
  GI50: 0.0231 µM
  TGI: 0.332 µM and 0.0582 µM
[10]
  TGI: > 100 µM

## CC1(C)CC(C)(C)C1=NNC(N)=O
[1]
  TGI: > 100 µM
[2]
  TGI: > 100 µM
[3]
  TGI: > 100 µM
[4]
  TGI: > 100 µM
[5]
  TGI: > 100 µM
[6]
  TGI: > 100 µM
[7]
  TGI: > 100 µM
[8]
  TGI: > 100 µM
[9]
  TGI: > 100 µM
[10]
  TGI: > 100 µM

## COc1cccc(-n2ncc3c(N/N=C/c4ccncc4)ncnc32)c1
[1]
  GI50: 4.33 µM
  TGI: > 25 µM
[2]
  GI50: > 25 µM
  TGI: > 25 µM
[3]
  GI50: 4.66 µM
  TGI: > 25 µM
[4]
  GI50: > 25 µM
  TGI: > 25 µM
[5]
  GI50: 3.56 µM
  TGI: > 25 µM
[6]
  GI50: > 25 µM
  TGI: > 25 µM
[7]
  GI50: 11.5 µM
  TGI: > 25 µM
[8]
  GI50: 0.779 µM
  TGI: > 25 µM
[9]
  GI50: 8.66 µM
  TGI: > 25 µM
[10]
  GI50: > 25 µM
  TGI: > 25 µM

## C/C=C(\C)C(=O)O[C@H]1C=CC(=O)O[C@@H]1CC[C@H](O)[C@H](C)O
[1]
  GI50: 37.6 µM
  TGI: 98.1 µM
[2]
  GI50: 38.6 µM
  TGI: > 87.1 µM
[3]
  GI50: 46.5 µM
  TGI: > 100 µM
[4]
  GI50: 35 µM
  TGI: > 87.5 µM
[5]
  GI50: 34 µM
  TGI: > 100 µM
[6]
  GI50: 69.1 µM
  TGI: > 100 µM
[7]
  GI50: 30.6 µM
  TGI: 72.6 µM
[8]
  GI50: 33 µM
  TGI: > 100 µM
[9]
  GI50: 5.71 µM
  TGI: 36.3 µM
[10]
  GI50: > 100 µM
  TGI: > 100 µM

## O=C(NC[C@H](O)CO)c1ccncc1Nc1ccc(I)cc1F
[1]
  GI50: 0.00484 µM and < 0.01 µM
  TGI: 0.0923 µM and 0.0599 µM
[2]
  GI50: > 10 µM and 19.3 µM
  TGI: > 100 µM
[3]
  GI50: > 10 µM and 6.21 µM
  TGI: > 100 µM
[4]
  GI50: 0.0509 µM and 0.0379 µM
  TGI: 1.2 µM and 3.61 µM
[5]
  GI50: 0.0031 µM and < 0.01 µM
  TGI: > 3.52 µM and 10.8 µM
[6]
  GI50: 0.0913 µM and 0.0707 µM
  TGI: > 71.8 µM
[7]
  GI50: 0.00323 µM and < 0.01 µM
  TGI: > 100 µM
[8]
  GI50: 1.32 µM and 4.26 µM
  TGI: > 100 µM
[9]
  GI50: 0.00228 µM and < 0.01 µM
  TGI: > 54.2 µM
[10]
  GI50: > 10 µM and 35 µM
  TGI: > 100 µM

## O=c1nc2oc3ccc4ccccc4c3cc-2s1
[1]
  GI50: 3.79 µM
  TGI: > 100 µM
[2]
  GI50: 3.51 µM
  TGI: > 100 µM
[3]
  GI50: 3.25 µM
  TGI: > 100 µM
[4]
  GI50: 1.62 µM
  TGI: > 57.8 µM
[5]
  GI50: 1.09 µM
  TGI: > 100 µM
[6]
  GI50: 28.7 µM
  TGI: > 100 µM
[7]
  GI50: 16.3 µM
  TGI: > 100 µM
[8]
  GI50: 0.526 µM
  TGI: > 100 µM
[9]
  GI50: 1.41 µM
  TGI: > 100 µM
[10]
  GI50: > 100 µM
  TGI: > 100 µM

## Cc1ccc(S(=O)(=O)Nc2cccc3[nH]c(C(F)(F)F)nc23)cc1
[1]
  GI50: 0.321 µM
  TGI: 3.54 µM
[2]
  GI50: 0.492 µM
  TGI: 57 µM
[3]
  GI50: 1.94 µM
  TGI: 67.3 µM
[4]
  GI50: 0.957 µM
  TGI: 9.32 µM
[5]
  GI50: 0.355 µM
  TGI: 38.6 µM
[6]
  GI50: 1.66 µM
  TGI: 41.5 µM
[7]
  GI50: 0.387 µM
  TGI: 10.7 µM
[8]
  GI50: 0.269 µM
  TGI: > 100 µM
[9]
  GI50: 0.39 µM
  TGI: 17.2 µM
[10]
  GI50: 0.412 µM
  TGI: 42.9 µM

## C1CN(SSN2CCOCC2)CCO1
[1]
  GI50: > 100 µM
  TGI: > 100 µM
[2]
  GI50: 45 µM
  TGI: > 100 µM
[3]
  GI50: 21 µM
  TGI: 37.1 µM
[4]
  GI50: 15.7 µM
  TGI: 89.2 µM
[5]
  GI50: 20.6 µM
  TGI: 48.9 µM
[6]
  GI50: 22.5 µM
  TGI: 55.9 µM
[7]
  GI50: 25 µM
  TGI: 64 µM
[8]
  GI50: 4.58 µM
  TGI: > 100 µM
[9]
  GI50: 32.2 µM
  TGI: > 100 µM
[10]
  GI50: 35.3 µM
  TGI: > 100 µM

## CCOc1ccccc1N=Nc1c(C)[nH]n(-c2nc(-c3ccccc3)cs2)c1=O
[1]
  GI50: 27.3 µM
  TGI: > 100 µM
[2]
  GI50: 30.1 µM
  TGI: > 100 µM
[3]
  GI50: 35.4 µM
  TGI: > 100 µM
[4]
  GI50: 21.9 µM
  TGI: > 96.8 µM
[5]
  GI50: > 100 µM
  TGI: > 100 µM
[6]
  GI50: > 74.1 µM
  TGI: > 100 µM
[7]
  GI50: > 100 µM
  TGI: > 100 µM
[8]
  GI50: > 100 µM
  TGI: > 100 µM
[9]
  GI50: > 100 µM
  TGI: > 100 µM
[10]
  GI50: 37.6 µM
  TGI: > 100 µM

## CC[C@H](CO)Nc1nc(NCc2ccccc2)n2ncc(C(C)C)c2n1
[1]
  GI50: 1.47 µM
  TGI: 6 µM
[2]
  GI50: 2.48 µM
  TGI: 13.3 µM
[3]
  GI50: 1.98 µM
  TGI: 10.7 µM
[4]
  GI50: 1.67 µM
  TGI: 7.1 µM
[5]
  GI50: 2 µM
  TGI: 7.93 µM
[6]
  GI50: 1.71 µM
  TGI: 7.79 µM
[7]
  GI50: 1.12 µM
  TGI: 3.15 µM
[8]
  GI50: 2.44 µM
  TGI: 7.38 µM
[9]
  GI50: 0.409 µM
  TGI: 2.68 µM
[10]
  GI50: 2.08 µM
  TGI: 15.7 µM

## CN(C)c1ccc2c(c1)OC(N)=C(C#N)C2c1ccc2c(c1)CCO2 (configuration not stated)
[1]
  GI50: 0.0962 µM
  TGI: 24.7 µM
[2]
  TGI: 56.4 µM
[3]
  GI50: 0.0502 µM
  TGI: 25.1 µM
[4]
  GI50: 5.69 µM
  TGI: 74.3 µM
[5]
  GI50: 0.0417 µM
  TGI: 11.4 µM
[6]
  GI50: 0.362 µM
  TGI: > 100 µM
[7]
  GI50: 0.28 µM
  TGI: 3.39 µM
[8]
  GI50: < 0.023 µM
  TGI: > 100 µM
[9]
  GI50: 0.0939 µM
  TGI: 0.491 µM
[10]
  GI50: < 0.0279 µM
  TGI: > 22.1 µM
